Activity calls are given as the source filed them.
Assays:
Insulin-degrading enzyme [1] = target: T1, Insulin-degrading enzyme (Homo sapiens, UniProt P14735); experiment: recombinant IDE activation, cell-free – biochemical, fluorescence polarization, counter-screen for IDE activator project, dose response (AID 588681)
T1 sequence (P14735 whole entry): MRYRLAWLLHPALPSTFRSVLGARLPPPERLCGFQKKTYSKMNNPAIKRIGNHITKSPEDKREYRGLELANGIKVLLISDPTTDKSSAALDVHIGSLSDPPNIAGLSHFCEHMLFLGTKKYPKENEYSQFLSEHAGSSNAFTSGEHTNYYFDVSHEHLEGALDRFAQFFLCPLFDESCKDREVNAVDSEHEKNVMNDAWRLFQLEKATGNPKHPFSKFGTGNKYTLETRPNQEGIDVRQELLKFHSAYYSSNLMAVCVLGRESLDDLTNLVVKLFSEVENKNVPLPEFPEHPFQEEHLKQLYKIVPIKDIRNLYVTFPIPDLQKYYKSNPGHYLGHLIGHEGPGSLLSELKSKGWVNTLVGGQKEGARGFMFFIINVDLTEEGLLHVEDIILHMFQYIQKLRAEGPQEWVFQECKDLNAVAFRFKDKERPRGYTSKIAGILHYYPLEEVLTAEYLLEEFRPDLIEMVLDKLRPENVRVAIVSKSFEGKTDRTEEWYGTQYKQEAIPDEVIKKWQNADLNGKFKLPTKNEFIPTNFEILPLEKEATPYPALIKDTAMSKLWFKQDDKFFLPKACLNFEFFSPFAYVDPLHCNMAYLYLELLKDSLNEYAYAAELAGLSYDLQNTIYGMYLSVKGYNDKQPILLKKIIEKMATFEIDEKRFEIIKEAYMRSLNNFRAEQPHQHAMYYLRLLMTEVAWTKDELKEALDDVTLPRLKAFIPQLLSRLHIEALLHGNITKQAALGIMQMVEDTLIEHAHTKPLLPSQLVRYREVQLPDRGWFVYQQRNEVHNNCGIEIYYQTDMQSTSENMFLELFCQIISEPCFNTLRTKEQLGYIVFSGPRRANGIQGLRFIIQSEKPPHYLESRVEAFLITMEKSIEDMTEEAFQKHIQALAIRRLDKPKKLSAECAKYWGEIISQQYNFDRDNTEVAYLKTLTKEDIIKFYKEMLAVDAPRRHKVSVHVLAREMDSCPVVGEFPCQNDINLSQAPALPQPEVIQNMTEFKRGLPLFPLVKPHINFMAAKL

Insulin-degrading enzyme [2] = target: T1, Insulin-degrading enzyme; experiment: cellular IDE activation of Abeta substrate cleavage – fluorescence polarization, HEK cells, dose response (AID 588439); type: functional, cell-based
HEK293 [3] = experiment: membrane integrity loss in HEK cells – cell-based, fluorescence, cytotoxicity control for IDE activator project, dose response (AID 588440); type: functional; conditions: Homo sapiens;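 further: cytotoxicity by LDH release measuring loss of membrane integrity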
HEK293 [4] = experiment: optical interference in Abeta FP readout, dose response, artefact control for IDE activator project, biochemical, fluorescence polarization (AID 588442); type: functional, cell-based; conditions: Homo sapiens
[5] = target: T2, Ubiquitin-conjugating enzyme E2 N (Homo sapiens, UniProt P61088); type: functional;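 further: Dose-response confirmation in a TR-FRET assay detecting UBC13-driven polyubiquitin chain formation, inhibition measured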
T2 sequence (P61088 whole entry): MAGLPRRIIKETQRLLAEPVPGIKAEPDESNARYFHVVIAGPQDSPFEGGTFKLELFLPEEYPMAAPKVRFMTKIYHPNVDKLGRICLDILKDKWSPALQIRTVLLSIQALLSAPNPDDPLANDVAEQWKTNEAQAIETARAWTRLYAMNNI

INS1 = experiment: INS-1E survival protection against cytokine death – cell-based, luminescence, retest, dose response (AID 449756); type: functional; conditions: Rattus norvegicus;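 further: cell death triggered by IL-1 beta plus TNF-alpha plus IFN-gamma mixture; protective hits raise ATP signal compared with cytokine alone wells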
[6] = system: Streptococcus sp. 'group A'; experiment: Streptococcus pyogenes SK(-)GAS viability under kanamycin – luminescence, BacTiterGlo, confirmation, counter-screen for streptokinase expression inhibitor project, dose response (AID 1900); type: functional, organism-based
Streptokinase A = target: T3, Streptokinase A (Streptococcus pyogenes serotype M1, UniProt P10520); experiment: viability-normalized secreted streptokinase activity reduction – plasminogen activation absorbance, OD405, dose response (AID 1914); type: functional, Streptococcus pyogenes M1 GAS;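 further: secreted streptokinase activity via plasminogen activation per viability signal from cell pellet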
T3 sequence (P10520 whole entry): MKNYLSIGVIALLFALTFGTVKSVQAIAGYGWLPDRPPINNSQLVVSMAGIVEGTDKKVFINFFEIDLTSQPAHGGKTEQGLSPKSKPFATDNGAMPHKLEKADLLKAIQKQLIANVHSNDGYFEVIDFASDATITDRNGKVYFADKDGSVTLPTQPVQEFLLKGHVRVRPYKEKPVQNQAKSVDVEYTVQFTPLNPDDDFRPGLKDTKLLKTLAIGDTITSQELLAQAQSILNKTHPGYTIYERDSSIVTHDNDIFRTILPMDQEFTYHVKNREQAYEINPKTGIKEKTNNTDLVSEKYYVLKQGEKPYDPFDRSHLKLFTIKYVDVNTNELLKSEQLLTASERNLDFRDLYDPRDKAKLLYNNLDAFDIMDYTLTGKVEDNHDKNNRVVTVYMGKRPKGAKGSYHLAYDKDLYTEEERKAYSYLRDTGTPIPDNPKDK

Streptococcus = experiment: GAS UMAA2166 growth inhibition – luminescence, BacTiterGlo, counter-screen for streptokinase expression inhibitor project, dose response (AID 1915); type: functional, organism-based;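 further: potency for reduction of bacterial viability or growth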
[7] = target: T4, RNA-binding protein pos-1 (Caenorhabditis elegans, UniProt G5EF15); experiment: disruptors of C. elegans POS-1 RNA interaction – biochemical, fluorescence polarization, dose response (AID 1964);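 further: purified POS-1 fused to maltose binding protein made in E. coli; potency of compounds blocking POS-1 binding to fluorescent RNA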
T4 sequence (G5EF15 whole entry): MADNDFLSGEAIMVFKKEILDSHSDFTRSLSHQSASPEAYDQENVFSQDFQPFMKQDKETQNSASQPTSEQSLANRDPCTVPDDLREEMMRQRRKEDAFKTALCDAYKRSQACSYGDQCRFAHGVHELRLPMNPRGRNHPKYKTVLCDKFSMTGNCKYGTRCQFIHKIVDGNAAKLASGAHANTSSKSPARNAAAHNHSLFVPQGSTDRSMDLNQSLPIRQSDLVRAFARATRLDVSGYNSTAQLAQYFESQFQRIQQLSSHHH

[8] = target: T5, Zinc finger protein mex-5 (Caenorhabditis elegans, UniProt Q9XUB2); experiment: potency of MEX-5 RNA-binding blockers – biochemical, C. elegans, fluorescence polarization, dose response (AID 1960)
T5 sequence (Q9XUB2 whole entry): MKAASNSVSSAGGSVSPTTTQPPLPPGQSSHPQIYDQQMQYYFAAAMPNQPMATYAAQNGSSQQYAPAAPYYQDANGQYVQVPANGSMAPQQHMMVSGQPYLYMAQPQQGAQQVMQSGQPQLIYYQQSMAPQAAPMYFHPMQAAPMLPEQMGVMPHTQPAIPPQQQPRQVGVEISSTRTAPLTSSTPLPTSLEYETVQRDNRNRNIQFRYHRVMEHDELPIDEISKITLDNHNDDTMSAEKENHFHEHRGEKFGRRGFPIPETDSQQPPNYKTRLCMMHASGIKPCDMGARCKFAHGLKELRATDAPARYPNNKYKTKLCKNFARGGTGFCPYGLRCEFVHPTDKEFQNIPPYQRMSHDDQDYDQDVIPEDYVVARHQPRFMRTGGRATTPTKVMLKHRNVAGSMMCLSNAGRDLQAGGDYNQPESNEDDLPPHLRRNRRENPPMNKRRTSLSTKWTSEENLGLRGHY

cells = type: functional
[9] = target: T6, Endoribonuclease toxin MazF (Escherichia coli K-12, UniProt P0AE70); experiment: activation of MazEF endoribonuclease cleavage – biochemical, fluorescence, single-stranded RNA substrate, uHTS hits, dose response (AID 588481); type: functional
T6 sequence (P0AE70 whole entry): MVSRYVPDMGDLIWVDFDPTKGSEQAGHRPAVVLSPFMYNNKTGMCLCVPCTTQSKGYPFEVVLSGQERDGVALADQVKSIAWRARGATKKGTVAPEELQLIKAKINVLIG

[10] = target: T6, Endoribonuclease toxin MazF; experiment: substrate-only fluorescence increase artefacts – biochemical, single-stranded RNase substrate, counter-screen for MazEF activator project, dose response (AID 588502); type: functional
[11] = target: T7, DNA repair and recombination protein RAD54-like (Homo sapiens, UniProt Q92698); experiment: RAD54 Holliday junction migration blockers – biochemical, fluorescence, cherry-picked samples, dose series, confirmation (AID 651657); type: functional
T7 sequence (Q92698 whole entry): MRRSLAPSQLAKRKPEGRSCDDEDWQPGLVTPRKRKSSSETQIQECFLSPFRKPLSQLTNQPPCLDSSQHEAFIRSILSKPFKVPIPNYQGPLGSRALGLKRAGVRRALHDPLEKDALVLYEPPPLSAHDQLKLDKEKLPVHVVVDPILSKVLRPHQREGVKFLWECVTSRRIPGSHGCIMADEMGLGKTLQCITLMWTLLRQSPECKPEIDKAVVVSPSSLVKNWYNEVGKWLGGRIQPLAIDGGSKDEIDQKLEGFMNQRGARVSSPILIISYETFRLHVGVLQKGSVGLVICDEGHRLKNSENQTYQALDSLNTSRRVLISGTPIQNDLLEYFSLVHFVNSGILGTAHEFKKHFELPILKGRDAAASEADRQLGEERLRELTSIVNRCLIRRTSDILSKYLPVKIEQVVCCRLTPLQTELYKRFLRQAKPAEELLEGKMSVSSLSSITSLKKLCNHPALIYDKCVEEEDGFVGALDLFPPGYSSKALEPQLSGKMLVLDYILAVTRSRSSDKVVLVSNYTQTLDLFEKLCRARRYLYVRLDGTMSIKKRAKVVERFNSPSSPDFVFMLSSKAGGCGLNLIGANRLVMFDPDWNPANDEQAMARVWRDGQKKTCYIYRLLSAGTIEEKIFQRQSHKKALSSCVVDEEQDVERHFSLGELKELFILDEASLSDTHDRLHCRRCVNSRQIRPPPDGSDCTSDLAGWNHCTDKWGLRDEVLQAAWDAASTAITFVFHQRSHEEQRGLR

[12] = target: T8, Histone-lysine N-methyltransferase NSD2 (Homo sapiens, UniProt O96028); type: biochemical
T8 sequence (O96028 whole entry): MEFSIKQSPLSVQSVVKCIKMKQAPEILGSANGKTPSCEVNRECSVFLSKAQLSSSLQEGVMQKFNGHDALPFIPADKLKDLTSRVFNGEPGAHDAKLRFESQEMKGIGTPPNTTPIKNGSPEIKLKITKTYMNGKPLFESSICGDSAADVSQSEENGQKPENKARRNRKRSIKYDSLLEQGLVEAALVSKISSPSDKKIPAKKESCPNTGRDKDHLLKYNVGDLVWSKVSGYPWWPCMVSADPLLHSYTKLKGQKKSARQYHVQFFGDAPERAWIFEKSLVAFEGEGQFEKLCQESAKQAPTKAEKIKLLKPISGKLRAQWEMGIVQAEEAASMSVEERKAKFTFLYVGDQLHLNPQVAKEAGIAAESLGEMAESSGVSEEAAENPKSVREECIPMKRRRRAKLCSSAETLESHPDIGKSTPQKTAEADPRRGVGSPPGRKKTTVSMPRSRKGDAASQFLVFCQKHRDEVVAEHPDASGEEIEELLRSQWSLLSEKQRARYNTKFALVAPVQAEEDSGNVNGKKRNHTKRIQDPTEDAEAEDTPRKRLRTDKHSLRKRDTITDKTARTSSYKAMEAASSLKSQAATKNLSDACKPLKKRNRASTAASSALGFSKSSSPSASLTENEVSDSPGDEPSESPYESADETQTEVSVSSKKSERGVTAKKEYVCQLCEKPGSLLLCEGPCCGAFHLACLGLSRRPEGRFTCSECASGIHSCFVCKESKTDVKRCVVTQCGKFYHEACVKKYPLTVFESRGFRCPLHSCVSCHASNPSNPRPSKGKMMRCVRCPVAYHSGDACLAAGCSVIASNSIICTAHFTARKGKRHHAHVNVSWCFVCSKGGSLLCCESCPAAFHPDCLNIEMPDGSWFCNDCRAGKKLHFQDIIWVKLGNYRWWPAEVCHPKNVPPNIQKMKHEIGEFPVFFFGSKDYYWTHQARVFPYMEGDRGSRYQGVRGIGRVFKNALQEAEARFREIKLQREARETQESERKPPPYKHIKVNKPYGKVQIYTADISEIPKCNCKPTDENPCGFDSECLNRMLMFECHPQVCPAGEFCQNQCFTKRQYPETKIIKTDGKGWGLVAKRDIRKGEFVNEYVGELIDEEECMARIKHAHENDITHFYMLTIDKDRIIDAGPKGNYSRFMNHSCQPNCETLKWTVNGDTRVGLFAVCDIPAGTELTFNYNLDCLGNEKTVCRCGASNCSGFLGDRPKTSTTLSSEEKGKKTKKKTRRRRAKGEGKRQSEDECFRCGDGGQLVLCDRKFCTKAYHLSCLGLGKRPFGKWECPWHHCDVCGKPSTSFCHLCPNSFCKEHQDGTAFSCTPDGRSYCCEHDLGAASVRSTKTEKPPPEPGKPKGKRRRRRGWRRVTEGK

SMILES | EC50 (Insulin-degrading enzyme [1]) | EC50 (Insulin-degrading enzyme [2]) | IC50 (HEK293 [3]) | EC50 (HEK293 [4]) | other results
O=C(c1ccccc1)N1CCN(c2ccc([N+](=O)[O-])c(NCc3cccnc3)c2)CC1 | > 54.7 µM (inactive) | > 54.7 µM (inactive) | > 89.2 µM (inactive) | > 54.7 µM (inactive) | –
COC(=O)C1=C(C)N(Cc2ccccc2)C(NCc2cccc(C(F)(F)F)c2)=N[C@H]1c1cccc(C(F)(F)F)c1 | > 54.7 µM (inactive) | > 6.08 µM (active) | 13.6 µM (inactive) | > 54.7 µM (inactive) | IC50 [5]: > 20 µM (inactive); AC50 (INS1): 5.53 µM (active)
NC(=O)c1ccc(NC(=O)COC(=O)c2c3c(nc4ccccc24)/C(=C\c2ccc4c(c2)OCO4)CCC3)cc1 | > 54.7 µM (inactive) | > 54.7 µM (inactive) | > 89.2 µM (inactive) | > 54.7 µM (inactive) | EC50 [6]: 13.6 µM (active); EC50 (Streptokinase A): > 150 µM (not active); EC50 (Streptococcus): 140 µM (active)
CCc1cc(Cn2nc(C(=O)O)cc2-c2ccccc2)on1 | > 54.7 µM (inactive) | > 54.7 µM (inactive) | > 89.3 µM (inactive) | > 54.7 µM (inactive) | –
O=[N+]([O-])c1ccc(Nc2ccccc2O)c2nonc12 | – | – | – | – | EC50 [7]: 24.4 µM (active); EC50 [8]: 28.2 µM (active); IC50 (cells): 5.81 µM (active); EC50 [9]: > 99 µM (inactive); EC50 [10]: > 99 µM (inactive)
Nc1ccc(C2(c3ccc(N)cc3)CN3CCC2CC3)cc1 | – | – | – | – | AC50 [11]: 25.8 µM (active); AC50 [12]: 4.41 µM (active)
O=[N+]([O-])c1ccc(S(=O)(=O)N[N-][C+]2CCCCC2)cc1 | – | – | – | – | EC50 [9]: > 99 µM (inactive); EC50 [10]: 7.03 µM (active)
